Test results taken from publication PMC7921938, “The FDA-Approved Antiviral Raltegravir Inhibits Fascin1-Dependent Invasion of Colorectal Tumor Cells In Vitro and In Vivo” (Cancers, 2021).

Molecular target: T1, Fascin1 (Homo sapiens, UniProt Q16658)
T1 construct: gene FSCN1; full-length human Fascin1; in-house protein from pGEX-6P-2A (N-terminal GST, 3C site) in E. coli BL21-gold(DE3), GST cleaved with PreScission
Assay: intrinsic fluorescence titration
Format: binding

Kd: 180 ± 10 µM
SMILES: Cc1nnc(C(=O)NC(C)(C)c2nc(C(=O)NCc3ccc(F)cc3)c(O)c(=O)n2C)o1 [raltegravir]
